Reference: US20100317850A1 (priority 2008, published 2010)

System: Aβ42 production
Test: Quantification of Aβ peptide in culture of neurons from rat fetus brain (Aβ ELISA)
Format: cell-based
Details: Neuron, 72 h; rat primary neuronal culture (cerebral cortex, embryonic day 18 Wistar rats); medium collected three days after addition of the compound; Aβx-42 ELISA; read-out: Aβ42 production reducing effect IC50
Procedure, shortened: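 Primary cortical neurons from embryonic day 18 Wistar rats were cultured 4 days, then exposed to compound in Neurobasal/B27 without 2-ME, final DMSO ≤1%. After three days, medium was collected and Aβx-42 measured undiluted by sandwich ELISA.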

Point of comparison: `COc1ccc(NC(=O)c2ccc(Cl)cn2)cc1[C@]12CCC[C@H]1CSC(N)=N2` (racemic) [Example 34, (±)-N-[3-((4aR*,7aS*)-2-amino-4a,5,6,7-tetrahydro-4H-cyclopenta[d][1,3]thiazin-7a-yl)-4-methoxyphenyl]-5-chloropyridine-2-carboxamide], IC50 115 nM. Against it:
- NC1=N[C@@]2(c3cc(NC(=O)c4ccc(C#CC5CC5)cn4)ccc3F)CCC[C@H]2CS1 (single isomer, unassigned) [Example 132, N-[3-((4aR*,7aS*)-2-amino-4a,5,6,7-tetrahydro-4H-cyclopenta[d][1,3]thiazin-7a-yl)-4-fluorophenyl]-5-cyclopropylethynyl-pyridine-2-carboxamide] — 2.6-fold lower, 44 nM
- NC1=N[C@@]2(c3cc(NC(=O)c4cnc(OCF)cn4)ccc3F)CCO[C@H](CF)[C@H]2CS1 (relative stereo) [Example 144, N-[3-((4aS*,5S*,8aS*)-2-amino-5-fluoromethyl-4a,5,7,8-tetrahydro-4H-6-oxa-3-thia-1-azanaphthalen-8a-yl)-4-fluorophenyl]-5-fluoromethoxypyrazine-2-carboxamide] — 10-fold lower, 11 nM
- NC1=N[C@@]2(c3cc(NC(=O)c4ncccc4C(F)(F)F)ccc3F)CCCCC[C@H]2CS1 [Example 252] — 1.6-fold higher, 187 nM
- NC1=N[C@@]2(c3cc(-c4cccnc4F)ccc3F)CCC[C@H]2CS1 (racemic) [Example 160, (±)-(4aR*,7aS*)-7a-[2-fluoro-5-(2-fluoropyridin-3-yl)phenyl]-4,4a,5,6,7,7a-hexahydrocyclopenta[d][1,3]thiazin-2-ylamine] — 4.5-fold higher, 521 nM
- CO[C@H]1C[C@H]2CSC(N)=N[C@@]2(c2cc(NC(=O)c3cnc(C(F)F)cn3)ccc2F)C1 (relative stereo) [Example 92, (+)-N-[3-((4aR*,6S*,7aS*)-2-amino-6-methoxy-4a,5,6,7-tetrahydro-4H-cyclopenta[d][1,3]thiazin-7a-yl)-4-fluorophenyl]-5-difluoromethylpyrazine-2-carboxamide] — 23-fold lower, 5 nM
- Cc1cnc(C(=O)Nc2ccc(F)c([C@]34CCC[C@H]3CSC(N)=N4)c2)cn1 [Example 195] — 1.7-fold lower, 68 nM
- CCO[C@@H]1C[C@H]2CSC(N)=N[C@@]2(c2cc(NC(=O)c3ccc(C#N)cn3)ccc2F)C1 (relative stereo) [Example 90, (+)-N-[3-((4aR*,6R*,7aS*)-2-amino-6-ethoxy-4a,5,6,7-tetrahydro-4H-cyclopenta[d][1,3]thiazin-7a-yl)-4-fluorophenyl]-5-cyanopyridine-2-carboxamide] — 46-fold lower, 2.5 nM
- CC[C@H]1OC[C@]2(c3cc(NC(=O)c4ccc(C#N)cn4)ccc3F)N=C(N)SC[C@H]12 (relative stereo) [Example 49, N-[3-((4aS*,5R*,7aS*)-2-amino-5-ethyl-4a,5-dihydro-4H-furo[3,4-d][1,3]thiazin-7a-yl)-4-fluorophenyl]-5-cyanopyridine-2-carboxamide] — 140-fold lower, 0.8 nM
- NC1=N[C@@]2(c3cc(NC(=O)c4ccc(C(F)(F)F)cn4)ccc3F)CCCC[C@H]2CS1 (single isomer, unassigned) [Example 106, N-[3-((4aR*,8aS*)-2-amino-4,4a,5,6,7,8-hexahydrobenzo[d][1,3]thiazin-8a-yl)-4-fluorophenyl]-5-trifluoromethylpyridine-2-carboxamide] — within 1.5-fold, 88 nM
- CO[C@@H]1C[C@H]2CSC(N)=N[C@@]2(c2cc(NC(=O)c3cnc(OC(F)F)cn3)ccc2F)C1 (relative stereo) [Example 95] — 120-fold lower, 1 nM
- NC1=N[C@@]2(c3cc(NC(=O)c4cnc(OC(F)F)cn4)ccc3F)COC[C@H]2CS1 (relative stereo) [Example 25, N-[3-((4aS*,7aS*)-2-amino-4a,5-dihydro-4H-furo[3,4-d][1,3]thiazin-7a-yl)-4-fluorophenyl]-5-difluoromethoxypyrazine-2-carboxamide] — 19-fold lower, 6.1 nM
- NC1=N[C@@]2(c3cc(NC(=O)c4ccc(OC(F)F)cn4)ccc3F)CCC[C@H]2CS1 (single isomer, unassigned) [Example 175, N-[3-((4aR*,7aS*)-2-amino-4a,5,6,7-tetrahydro-4H-cyclopenta[d][1,3]thiazin-7a-yl)-4-fluorophenyl]-5-difluoromethoxypyridine-2-carboxamide] — 13-fold lower, 9 nM
- COC[C@H]1C[C@]2(c3cc(NC(=O)c4ccc(C#N)cn4)ccc3F)N=C(N)SC[C@@H]2CO1 [Example 39, N-[3-((4aS,7R,8aS)-2-amino-7-methoxymethyl-4a,5,7,8-tetrahydro-4H-6-oxa-3-thia-1-azanaphthalen-8a-yl)-4-fluorophenyl]-5-cyanopyridine-2-carboxamide] — 16-fold lower, 7 nM
- NC1=N[C@@]2(c3cc(NC(=O)c4ncc(F)cc4F)ccc3F)CCOC[C@H]2CS1 [Example 200] — 2.6-fold lower, 44 nM
- NC1=N[C@@]2(c3cc(NC(=O)c4ccc(Br)o4)ccc3F)CCCC[C@H]2CS1 [Example 122] — within 1.5-fold, 123 nM
- NC1=N[C@@]2(c3cc(NC(=O)c4ncccc4C(F)(F)F)ccc3F)CCCC[C@H]2CS1 [Example 261] — 2.4-fold higher, 277 nM
- NC1=N[C@@]2(c3cc(NC(=O)c4ccc(OC(F)F)cn4)ccc3F)COC[C@H]2CS1 (relative stereo) [Example 167, N-[3-((4aS*,7aS*)-2-amino-4a,5-dihydro-4H-furo[3,4-d][1,3]thiazin-7a-yl)-4-fluorophenyl]-5-difluoromethoxypyridine-2-carboxamide] — 19-fold lower, 6 nM
- COC[C@H]1OC[C@]2(c3cc(NC(=O)c4cnc(OC(F)F)cn4)ccc3F)N=C(N)SC[C@H]12 [Example 67, N-[3-((4aS,5S,7aS)-2-amino-5-methoxymethyl-4a,5-dihydro-4H-furo[3,4-d][1,3]thiazin-7a-yl)-4-fluorophenyl]-5-difluoromethoxy-pyrazine-2-carboxamide] — 82-fold lower, 1.4 nM
- CC[C@H]1OC[C@]2(c3cc(NC(=O)c4cnc(OC(F)F)cn4)ccc3F)N=C(N)SC[C@H]12 (relative stereo) [Example 50, N-[3-((4aS*,5R*,7aS*)-2-amino-5-ethyl-4a,5-dihydro-4H-furo[3,4-d][1,3]thiazin-7a-yl)-4-fluorophenyl]-5-difluoromethoxypyrazine-2-carboxamide] — 130-fold lower, 0.9 nM
- COc1cccnc1C(=O)Nc1ccc(F)c([C@]23CCC[C@H]2CSC(N)=N3)c1 [Example 238] — 3-fold higher, 350 nM
